Measured values: US6342514B1, “Compositions and methods for treating bone deficit conditions” (ZymoGenetics, Inc., priority 1996, dated 2002)

What was measured:
mouse BMP2 promoter = experiment: High throughput screening: BMP-2 promoter luciferase reporter assay in 2T3-BMP-2-LUC cells; assay type: cell-based; conditions: at about 3 μM
Text: A rapid throughput screening test for compounds capable of stimulating expression of a reporter gene linked to a BMP promoter (a surrogate for the production of bone morphogenetic factors that are endogenously produced) is described in U.S. application Ser. No. 08/458,434, filed Jun. 2, 1995, the contents of which are incorporated herein by reference. This assay is also described as a portion of a study of immortalized murine osteoblasts (derived from a mouse expressing a transgene composed of a BMP2 promoter driving expression of T-antigen) in Ghosh-Choudhery, N. et al. Endocrinology (1996) 137:331-39. […]
Briefly, the assay utilizes cells transformed permanently or transiently with constructs in which the promoter of a bone morphogenetic protein, specifically BMP2 or BMP4, is coupled to a reporter gene, typically luciferase. These transformed cells are then evaluated for the production of the reporter gene product; compounds that activate the BMP promoter will drive production of the reporter protein, which can be readily assayed. […]
The treated cells were incubated for 24 hours at 37° C. and 5% CO2. […] Luminescence was measured on an automated 96-well luminometer, and was expressed as either picograms of luciferase activity per well or as picograms of luciferase activity per microgram of protein. […]

[1] = system: calvarial bone of ICR Swiss white mice; experiment: In vivo assay of effects of compounds on murine calvarial bone growth; design: species or system mouse; conditions: subcutaneous injection over right calvaria, day 14, compared to vehicle control
Procedure: Male ICR Swiss white mice, aged 4-6 weeks and weighing 13-26 gm, are employed, using 4-5 mice per group. The calvarial bone growth assay is performed as described in PCT application WO 95/24211. Briefly, the test compound or appropriate control vehicle is injected into the subcutaneous tissue over the right calvaria of normal mice. Typically, the control vehicle is the vehicle in which the compound was solubilized, and is PBS containing 5% DMSO or is PBS containing Tween (2 μl/10 ml). The animals are sacrificed on day 14 and bone growth measured by histomorphometry. Bone samples for quantitation are cleaned from adjacent tissues and fixed in 10% buffered formalin for 24-48 hours, decalcified in 14% EDTA for 1-3 weeks, processed through graded alcohols; and embedded in paraffin wax. Three to five μm sections of the calvaria are prepared, and representative sections are selected for histomorphometric assessment of the effects on bone formation and bone resorption. Sections are measured by using a camera lucida attachment to trace directly the microscopic image onto a digitizing plate. Bone changes are measured on sections cut 200 μm apart, over 4 adjacent 1×1 mm fields on both the injected and noninjected sides of the calvaria. New bone is identified by its characteristic woven structure, and osteoclasts and osteoblasts are identified by their distinctive morphology. […]

[2] = system: TMC-23 mouse clonal chondrogenic cell line; experiment: Chondrogenic activity: alkaline phosphatase (ALP) activity in TMC-23 cells; assay type: cell-based; conditions: day 2, 10^−9 M, compared to vehicle control
Procedure: Briefly, a mouse clonal chondrogenic cell line, TMC-23, was isolated and cloned from costal cartilage of transgenic mice containing the BMP-2 gene control region driving SV-40 large T-antigen, generated as described in Ghosh-Choudhury et al Endocrinology 137:331-39, 1996.
For measurement of alkaline phosphatase (ALP) activity, the technique of LF Bonewald et al. J Biol Chem (1992) 267:8943-49, was employed. Briefly, TMC-23 cells were plated in 96 well microtiter plates in DMEM containing 10% FCS at 4×10^3 cells/well. Two days after plating, the cells were confluent and the medium was replaced with fresh medium containing 10% FCS and different concentrations of compounds or recombinant BMP-2. After an additional 2 or 5 days incubation, the plates were washed twice with PBS, and then lysing solution (0.05% Triton X-100) was added (100 μl/well). The cells were lysed by three freeze-thaw cycles of −70° C. (30 min), followed by 37° C. (30 min with shaking). […] The spectrophotometric absorbance at 405 nm was compared to that of p-nitrophenol standards to estimate ALP activity in the samples. The protein content of the cell lysates was determined by the Bio-Rad protein assay kit (Bio-Rad, Hercules, Calif.). Specific activity was calculated using these two parameters.

c1ccc(N=NC2=NNc3ccccc3S2)cc1 [Compound 59-0008, 3-phenylazo-1H-4,1,2-benzothiadiazine]
luciferase response at maximal activity (mouse BMP2 promoter): approximately 175 light emission units
increase in width of new calvarial bone [1]: 4 fold
increase of ALP levels [2]: approximately 3 fold
